Reference: a melting point compilation (Tetko et al.)

| melting point | SMILES |
| --- | --- |
| 159 to 161 °C | O=Cc1cnc(-c2cnccn2)s1 |
| 158 to 160 °C | CCC(CC)c1nnc(N)s1 |
| 122 to 124 °C | CC1CCc2sc(C(=O)NN)cc2C1 (configuration not stated) |
| 60 to 62 °C | CN(C)c1ccc(Cn2nccc2N)cc1 |
| 235 to 237 °C | NNc1ncnc2nc[nH]c12 |
| 73 to 75 °C | Nc1nc(-c2ccccc2OC(F)F)cs1 |
| 117 to 119 °C | CC(C)CCC1CCC(=O)NC1=O (configuration not stated) |
| 117 to 119 °C | O=C(O)CCC(=O)c1cc(Cl)sc1Cl |
| 97 to 99 °C | CCOC(=O)c1c(NC(=O)CCl)sc(C)c1CC |
| 60 to 62 °C | COc1cc(CCl)cc(Br)c1OC |
| 101 to 104 °C | CCC(C)NC(=O)c1ccc(N)cc1 (configuration not stated) |
| 159 to 161 °C | Cc1cc(S(N)(=O)=O)cc(N)c1C |
| 134 to 136 °C | CCN(CC)S(=O)(=O)c1ccc(Oc2ccc(C=O)cc2OC)c([N+](=O)[O-])c1 |
| 131 to 133 °C | CCN(CC)S(=O)(=O)c1ccc2c(c1)CCCN2 |
| 111 to 113 °C | OCC1CCCN(c2cc(Cl)ncn2)C1 (configuration not stated) |
| 143 to 145 °C | N#Cc1cccc(Cc2cnc(N)s2)c1 |
| 177 to 179 °C | NS(=O)(=O)c1nc2ccccc2s1 |
| 106 to 108 °C | CC(C)COc1ncc(C(=O)O)cc1Cl |
| 83 to 85 °C | CC(C)(C)Cc1nc2cc(N)ccc2o1 |
| 207 to 209 °C | Cc1cccc(C)c1Nc1nnc(SCC(=O)O)s1 |
| 178 to 180 °C | COC(=O)Cc1c(C(=O)OC)sc(N)c1C(=O)OC |
| 111 to 113 °C | CC(C)(C)c1nn(-c2ccccc2Cl)cc1C=O |
| 162 to 164 °C | CC1=NS(=O)(=O)NC(C)=C1CCC(=O)O |
| 259 to 261 °C | CC(Nc1nc2ccccc2s1)C(=O)O (configuration not stated) |
| 56 to 58 °C | COCCOc1cc2c(cc1CO)OCO2 |
| 34 to 36 °C | CCOc1cccc(F)c1[N+](=O)[O-] |

| melting point | SMILES |
| --- | --- |
| 215 to 217 °C | Cc1ccc(-c2nc(C)c(C(=O)O)s2)o1 |
| 89 to 91 °C | COC(=O)c1cc(OC)c(OC(F)F)cc1N |
| 117 to 121 °C | Cc1cc(OCC(=O)O)ccc1C(C)C |
| 229 to 231 °C | Nc1nnc2ccccn12 |
| 127 to 129 °C | CN1CCc2ccc(N)cc2C1=O |
| 159 to 161 °C | Cc1oncc1C(=O)NC(C)C(=O)O (configuration not stated) |
| 164 to 166 °C | Cn1c(C(C)(C)C)nc2cc(N)ccc21 |
| 49 to 51 °C | Cc1cc(C)cc(CCC(=O)O)c1 |
| 168 to 170 °C | CCOC(=O)c1c(N)sc(C(=O)OC)c1CC(=O)OC |
| 178 to 180 °C | O=[N+]([O-])c1ccc(Cc2nnn[nH]2)cc1 |
| 107 to 108 °C | Sc1nnc(-c2cccs2)n1CC1CCCO1 (configuration not stated) |
| 94 to 96 °C | COc1cccc(-c2cc(N)n(C)n2)c1 |
| 86 to 88 °C | CCOCc1ccc(CNC(=O)CCl)cc1 |
| 189 to 191 °C | CSc1nc(Cl)ccc1C(=O)O |
| 202 to 204 °C | CC(NS(=O)(=O)c1ccc(N)cc1)C1CC2CCC1C2 (configuration not stated) |
| 74 to 76 °C | CC(C)c1cccc(S(N)(=O)=O)c1 |
| 248 to 250 °C | Nc1nc(-c2ccc(Cl)cc2)no1 |
| 75 to 77 °C | Cc1ccc(C)c(S(=O)(=O)NN)c1 |
| 174 to 176 °C | Nc1cccc(-c2csc(N)n2)c1 |
| 50 to 52 °C | O=C(O)CCc1ccc(Cl)s1 |
| 214 to 216 °C | NC(=O)c1ccc(S(N)(=O)=O)s1 |
| 104 to 106 °C | CCOC(=O)c1oc2c(c1C)C(=O)CCC2 |
| 161 to 163 °C | COc1ccc(N)cc1-n1nnnc1C1CC1 |
| 88 to 92 °C | Cc1cc(N)n(-c2cccc(C(F)(F)F)c2)n1 |
| 169 to 171 °C | CC(C)Nc1ncccc1C(=O)O |
| 82 to 84 °C | CCN(CC)S(=O)(=O)c1cccc(NC(=O)CCl)c1 |

More lines, now with the values behind:

| SMILES | melting point |
| --- | --- |
| CS(=O)(=O)CC(=O)c1ccccc1 | 106 to 108 °C |
| CC1(C)C2CCC1(CS(=O)(=O)F)C(=O)C2 (configuration not stated) | 79 to 81 °C |
| O=C1c2ccccc2-c2n[nH]c3cccc1c23 | 236 to 238 °C |
| COc1cc(S(N)(=O)=O)ccc1[N+](=O)[O-] | 149 to 151 °C |
| O=Cc1ccc(-c2ccccc2)s1 | 90 to 92 °C |
| COc1ccc(C(CNC(=O)CCl)c2c[nH]c3ccccc23)cc1 (configuration not stated) | 157 to 159 °C |
| CS(=O)(=O)Nc1ccc(S(N)(=O)=O)cc1F | 190 to 192 °C |
| O=C(CCCl)Nc1ccc(N2CCOCC2)cc1 | 192 to 194 °C |
| O=C(O)c1ccc(-c2nnn[nH]2)cc1 | 282 to 284 °C |
| Cc1cc2c(n1-c1cccc(C(F)(F)F)c1)CCCC2=O | 121 to 123 °C |
| NNc1ccc2ccccc2n1 | 147 to 151 °C |
| O=C(O)Cn1cnc2ccc(Br)cc2c1=O | 277 to 279 °C |
| Cc1ccc(S(=O)(=O)CCC(=O)O)cc1 | 108 to 110 °C |
| O=C(c1ccc(F)cc1)N1CCCCC(Cl)C1=O (configuration not stated) | 143 to 145 °C |
| N#Cc1cnc2c(OC(F)F)cccc2c1Cl | 120 to 122 °C |
| Nc1ccc(N2CCNC(=O)C2)cc1 | 167 to 169 °C |
| C=CC(=O)NC(=O)NC | 174 to 176 °C |
| Cc1ccc(S(=O)(=O)N2CCC(C(=O)O)CC2)c(C)c1 | 200 to 202 °C |
| Clc1c[nH]c2ccccc12 | 79 to 81 °C |
| O=C(O)C1(Cc2nc3ccccc3s2)CCCC1 | 155 to 157 °C |
| NS(=O)(=O)Cc1c(F)cccc1F | 153 to 155 °C |
| O=C(O)c1ccn(-c2c(F)cccc2F)n1 | 179 to 181 °C |
| Cc1ccsc1C(=O)Nc1ccc(O)cc1 | 127 to 129 °C |

| SMILES | melting point |
| --- | --- |
| CC1Cc2ccccc2N1c1ccccc1C(=O)O (configuration not stated) | 124 to 126 °C |
| O=S(=O)(NCCBr)c1ccccc1 | 54 to 56 °C |
| CCCCCC(=O)Nc1ccc(C(=O)CCl)cc1 | 179 to 181 °C |
| O=Ic1ccccc1 | 199 to 201 °C |
| O=C(O)c1ccc(COc2ccc(Br)cc2)o1 | 194 to 196 °C |
| COc1cc(Br)ccc1C#N | 135 to 137 °C |
| NNC(=O)c1cnn(-c2ccccc2)c1 | 179 to 181 °C |
| O=C1Nc2c(ccc(Cl)c2Cl)C1=O | 203 to 205 °C |
| NS(=O)(=O)c1cccc2ncccc12 | 179 to 181 °C |
| NNc1cccc(F)c1F | 61 to 63 °C |
| Cc1ccc(C(=O)O)c(Br)c1 | 143 to 147 °C |
| O=C(O)C1CCN(c2nc3ccccc3o2)CC1 | 147 to 149 °C |
| O=c1[nH]cnc2c1oc1ccccc12 | 300 to 302 °C |
| O=C(O)c1cc([N+](=O)[O-])c[nH]1 | 198 to 200 °C |
| CS(=O)(=O)Nc1cccc(CC(=O)O)c1 | 156 to 158 °C |
| Cc1cc(-c2ncc[nH]2)c(=O)[nH]n1 | 254 to 256 °C |
| COC(=O)c1cccc(CC(=O)O)c1 | 74 to 76 °C |
| Sc1nc(-c2ccccn2)no1 | 146 to 148 °C |
| O=C(O)c1cc(-c2cccs2)nc2ccccc12 | 199 to 201 °C |
| CC(C)(C)OC(=O)N1CCC(C(=O)NN)CC1 | 98 to 100 °C |
| CC(Nc1ccc(N(C)C)cc1)c1ccccn1 (configuration not stated) | 121 to 123 °C |
| CC(=O)c1ccc(S(C)(=O)=O)c(F)c1 | 103 to 105 °C |
| Cc1cc(C(=O)NCC(=O)O)ccc1[N+](=O)[O-] | 216 to 218 °C |

| SMILES | melting point |
| --- | --- |
| NC(CC(=O)O)C1CCOCC1 (configuration not stated) | 228 to 230 °C |
| O=c1[nH]cnc2scc(-c3ccc(F)cc3)c12 | 231 to 233 °C |
| Cc1ccc(N2C(=O)CSC2=S)cc1 | 168 to 170 °C |
| NC(=O)[C@H]1CCCC[C@H]1C(=O)O | 169 to 171 °C |
| Cc1cc(C)c(C#N)c(N2CCCC2)n1 | 54 to 56 °C |
| Sc1nc2cc(Cl)ccc2n1CCOc1ccccc1 | 182 to 184 °C |
| NS(=O)(=O)Cc1cc(Cl)ccc1F | 186 to 188 °C |
| CCCCNc1ccc(N2CCOCC2)cc1 | 59 to 61 °C |
| NNC(=S)NCc1ccc(F)cc1 | 140 to 142 °C |
| Nc1ccc(N2CCc3ccccc32)cc1C(=O)O | 189 to 191 °C |
| COc1cc2c(cc1OC)CC(=O)NCC2 | 192 to 194 °C |
| O=C(CCl)NCc1ccccc1COc1ccccc1 | 100 to 102 °C |
| O=C(O)Cc1cccc(OCCCOc2ccccc2)c1 | 78 to 80 °C |
| O=C1COc2c(Cl)cccc2N1 | 201 to 203 °C |
| CN(C)S(=O)(=O)c1ccc(C(=O)CBr)cc1 | 90 to 92 °C |
| Cc1cccc(N)c1C(=O)N1CCCC1 | 87 to 89 °C |
| Nc1c(F)ccc(Cl)c1C(=O)O | 161 to 163 °C |
| COC(=O)/C=C/c1ccc(OC)c(S(=O)(=O)Cl)c1 | 115 to 117 °C |
| O=C1CC(c2ccccc2)=NN1 | 246 to 248 °C |
| O=C(O)c1ccc(CN2CCC(O)CC2)cc1 | 219 to 221 °C |
| O=C(O)c1cnn(-c2ccccc2F)c1 | 160 to 162 °C |
| NNc1ccc(S(=O)(=O)C(F)F)cc1 | 72 to 74 °C |
| O=C(CCl)c1ccc2c(c1)CCCC2 | 62 to 64 °C |

| SMILES | melting point |
| --- | --- |
| N#Cc1cc(C(F)(F)F)ccc1N | 72 to 74 °C |
| CNS(=O)(=O)c1cc(C(=O)O)c(C)o1 | 154 to 156 °C |
| O=C(O)C1CCN(C(=O)c2ccc(Br)cc2)CC1 | 202 to 204 °C |
| CC(C)(C)C(=O)N1CCC(=O)CC1 | 94 to 96 °C |
| Cn1cccc1C(=O)NC(=O)CCl | 139 to 141 °C |
| CC(C)(C)NS(=O)(=O)c1ccccc1NN | 122 to 124 °C |
| COC(=O)c1cc(C(=O)OC)cc(S(=O)(=O)Cl)c1 | 105 to 107 °C |
| Cn1c(=O)n(C)c2cc(C(=O)O)c(Br)cc21 | 289 to 291 °C |
| COc1ccc(NC(=O)c2ccc(C(=O)O)s2)cc1 | 247 to 249 °C |
| Cn1ccc2ccnc(Cl)c21 | 57 to 59 °C |
| Nc1cc(F)c(F)cc1[N+](=O)[O-] | 107 to 108 °C |
| O=C1Nc2c(F)ccc(Cl)c2C1=O | 279 to 281 °C |
| O=S(=O)(c1ccc(S)nc1)N1CCN(Cc2ccccc2)CC1 | 169 to 171 °C |
| Cc1cc(S(=O)(=O)Cl)c(C)cc1Br | 54 to 56 °C |
| Cc1cc(C(=O)O)c(C)n1-c1ccc(C#N)cc1 | 249 to 251 °C |
| O=C(O)c1cc2occc2s1 | 188 to 190 °C |
| CC(C)(C)c1cc(=O)[nH]c(C(C)(C)C)n1 | 163 to 165 °C |
| COC(=O)C1CCN(c2ccnc(C#N)c2)CC1 | 104 to 106 °C |
| O=C(O)CCCNC(=O)c1ccsc1 | 235 to 237 °C |
| COC(=O)c1ccc(CN2C(=O)CSC2=O)cc1 | 117 to 119 °C |
| CNC1(c2ccccc2Cl)CCCC(=Cc2cccs2)C1=O (configuration not stated) | 129 to 131 °C |
